# Experiments:
# Assay type in all cases: in vivo
# Abutilon theophrasti [1] = assay: Pre-emergence herbicidal action, ABUTH; conditions: dosage 320 g/ha, scored visually after 3 weeks vs untreated controls
# Summary of the method: (§1)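 Percent herbicidal activity rated by eye 3 weeks after pre-emergence soil-surface application, compared with untreated pots. Seeds sat under sandy loam; sprays carried 0.2% wetting agent.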
# Alopecurus myosuroides [2] = assay: Pre-emergence herbicidal action, ALOMY; conditions: dosage 320 g/ha, scored visually after 3 weeks vs untreated controls
# Summary of the method: as §1
# Amaranthus retroflexus [3] = assay: Pre-emergence herbicidal action, AMARE; conditions: dosage 320 g/ha, scored visually after 3 weeks vs untreated controls
# Summary of the method: as §1
# Avena fatua [4] = assay: Pre-emergence herbicidal action, AVEFA; conditions: dosage 320 g/ha, scored visually after 3 weeks vs untreated controls
# Summary of the method: as §1
# Cyperus serotinus = assay: Pre-emergence herbicidal action, CYPES; conditions: dosage 320 g/ha, scored visually after 3 weeks vs untreated controls
# Summary of the method: as §1
# Matricaria inodora = assay: Pre-emergence herbicidal action, MATIN; conditions: dosage 320 g/ha, scored visually after 3 weeks vs untreated controls
# Summary of the method: as §1
# Setaria viridis [5] = assay: Pre-emergence herbicidal action, SETVI; conditions: dosage 320 g/ha, scored visually after 3 weeks vs untreated controls
# Summary of the method: as §1
# Stellaria media [6] = assay: Pre-emergence herbicidal action, STEME; conditions: dosage 320 g/ha, scored visually after 3 weeks vs untreated controls
# Summary of the method: as §1
# Viola tricolor [7] = assay: Pre-emergence herbicidal action, VIOTR; conditions: dosage 320 g/ha, scored visually after 3 weeks vs untreated controls
# Summary of the method: as §1
# Abutilon theophrasti [8] = assay: Post-emergence herbicidal action, ABUTH; conditions: 80 g/ha, Table D
# Summary of the method: (§2)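 Visual percent activity relative to untreated controls, assessed about 3 weeks after foliar treatment, where 0% equals control growth and 100% equals death. Compounds, as wettable powders or emulsion concentrates, are sprayed onto one-leaf-stage plants in sandy loam.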
# Alopecurus myosuroides [9] = assay: Post-emergence herbicidal action, ALOMY; conditions: 80 g/ha, Table C
# Summary of the method: as §2
# Amaranthus retroflexus [10] = assay: Post-emergence herbicidal action, AMARE; conditions: 80 g/ha, Table D
# Summary of the method: as §2
# Avena fatua [11] = assay: Post-emergence herbicidal action, AVEFA; conditions: 80 g/ha, Table C
# Summary of the method: as §2
# Pharbitis purpureum = assay: Post-emergence herbicidal action, PHBPU; conditions: 80 g/ha, Table D
# Summary of the method: as §2
# Setaria viridis [12] = assay: Post-emergence herbicidal action, SETVI; conditions: 80 g/ha, Table C
# Summary of the method: as §2
# Stellaria media [13] = assay: Post-emergence herbicidal action, STEME; conditions: 80 g/ha, Table D
# Summary of the method: as §2
# Viola tricolor [14] = assay: Post-emergence herbicidal action, VIOTR; conditions: 80 g/ha, Table D
# Summary of the method: as §2
# ECHCG = assay: Post-emergence herbicidal action, ECHCG; conditions: 80 g/ha, Table C
# Summary of the method: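 Weed and crop plants grown in sandy loam in the greenhouse, treated at the one-leaf stage 2–3 weeks after sowing. Damage scored visually after about 3 weeks vs untreated controls (0% = control, 100% = dead).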
SMILES,herbicidal activity ABUTH (Abutilon theophrasti [1]) [%],herbicidal activity ALOMY (Alopecurus myosuroides [2]) [%],herbicidal activity AMARE (Amaranthus retroflexus [3]) [%],herbicidal activity AVEFA (Avena fatua [4]) [%],herbicidal activity CYPES (Cyperus serotinus) [%],herbicidal activity MATIN (Matricaria inodora) [%],herbicidal activity SETVI (Setaria viridis [5]) [%],Herbicidal activity STEME (Stellaria media [6]) [%],herbicidal activity VIOTR (Viola tricolor [7]) [%],herbicidal activity ABUTH (Abutilon theophrasti [8]) [%],herbicidal activity ALOMY (Alopecurus myosuroides [9]) [%],herbicidal activity AMARE (Amaranthus retroflexus [10]) [%],herbicidal activity AVEFA (Avena fatua [11]) [%],Herbicidal activity PHBPU (Pharbitis purpureum) [%],herbicidal activity SETVI (Setaria viridis [12]) [%],Herbicidal activity STEME (Stellaria media [13]) [%],herbicidal activity VIOTR (Viola tricolor [14]) [%],Herbicidal activity ECHCG (ECHCG) [%]
CC[S+]([O-])c1c(C(F)F)ccc(C(=O)Nc2nnnn2C)c1F (stereo not drawn) [Example 1-41],100,100,100,100,100,100,100,100,100,100,90,100,100,90,90,100,100,90
CCSc1c(C(F)F)ccc(C(=O)Nc2nnnn2C)c1Cl [Example 1-52],100,100,100,100,90,100,100,100,100,100,100,100,100,100,90,100,100,90
CC[S+]([O-])c1c(C(F)F)ccc(C(=O)Nc2nnnn2C)c1Cl (stereo not drawn) [Example 1-53],100,100,100,100,100,100,100,100,100,100,100,100,100,100,100,100,100,90
CCS(=O)(=O)c1c(C(F)F)ccc(C(=O)Nc2nnnn2C)c1Cl [Example 1-54],100,100,100,100,100,100,100,100,100,100,90,100,100,100,100,100,100,90
CSc1c(C(F)F)ccc(C(=O)Nc2nnnn2C)c1Br [Example 1-61],100,100,100,100,100,100,100,100,100,100,90,90,100,100,90,100,100,90
Cn1nnnc1NC(=O)c1ccc(C(F)F)c([S+](C)[O-])c1Br (stereo not drawn) [Example 1-62],100,100,100,100,100,100,100,100,100,100,100,100,100,100,100,100,100,100
Cn1nnnc1NC(=O)c1ccc(C(F)F)c(S(C)(=O)=O)c1Br [Example 1-63],100,100,100,100,100,100,100,100,100,100,90,100,100,100,100,100,100,90
CCSc1c(C(F)F)ccc(C(=O)Nc2nnnn2C)c1Br [Example 1-64],100,100,100,100,100,100,100,100,100,100,90,100,100,100,90,100,100,90

# Reference: patent US20230183193A1, “4-DIFLUOROMETHYL BENZOYL AMIDES WITH HERBICIDAL ACTION” (BAYER CROPSCIENCE AKTIENGESELLSCHAFT, priority 2017, published 2023)
